Values quoted from earlier work as cited in patent publication US12115373B2, “Methods for reducing the risk of strokes by pharmacotherapy to reduce the number and duration of atrial fibrillations” (Xyra, LLC, priority 2022, dated 2024).

Details: in 2016; reported by the Market Insider; cited from earlier work

O=C(NC[C@H]1CN(c2ccc(N3CCOCC3=O)cc2)C(=O)O1)c1ccc(Cl)s1 [Xarelto, rivaroxaban]
adverse events: over 15,000
